The results in this text go back to patent US11000033B2, “Ketone or oxime compound, and herbicide” (NISSAN CHEMICAL CORPORATION, priority 2014, dated 2021).

Format in all cases: in vivo
In series [1] the test system is Scirpus juncoides. Description: Test Example 1: herbicidal activity, application before weed generation in submerged conditions (symbol B). To be noted: application herbicide amount 320 g/ha. The method, boiled down: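 Steps: alluvial soil flooded to 4 cm; weed seeds sown together; rice seedlings (2.5 leaf) transplanted; diluted emulsion applied to water surface the same day as sowing; plants grown at 25–30 °C in greenhouse; herbicidal effect rated on a 0–5 scale at 3 weeks.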

Series [2] has as its system Echinochloa oryzacola Vasing. Description: Test Example 2: herbicidal activity, application during weed generation in submerged conditions (symbol A). The conditions noted are these: Table 23; application herbicide amount 320 g/ha; grade 0-5 by criteria of Test Example 1. The method, boiled down: (§1)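 Flooded-soil post-emergence test: emulsion of compound, water-diluted to target rate, applied to paddy water surface at 1–2 leaf stage of mixed-sown weeds (alluvial soil, 4 cm water, 25–30° C. greenhouse); visual rating 3 weeks after application.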

The test system of series [3] is Scirpus juncoides. Description: Test Example 2: herbicidal activity, application during weed generation in submerged conditions (symbol B). To be noted: Table 23; application herbicide amount 320 g/ha; grade 0-5 by criteria of Test Example 1. The essentials:
as §1

For series [4], the system named is Echinochloa crus-galli var. crus-galli. The series is described as follows: Test Example 3: herbicidal effect by foliage application, Wagner pot (symbol H). To be noted: application herbicide amount 320 g/ha. The method, boiled down: (§2)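 Rating at 3 weeks post-spray, by defined criteria. Treatment: emulsion diluted with water to a predetermined amount, applied evenly to foliage of 14-day-old plants raised in alluvial soil flooded 0.1–0.5 cm deep at 25–30 °C, rice co-sown.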

For the next series, the system named is Setaria viridis. The series is described as follows: Test Example 4: herbicidal effect by soil treatment (symbol G). The conditions noted are these: for G: Setaria viridis, herbicidal effect grade: 320 g/ha. The method, boiled down:
(§3)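 Seeds were sown in sterilized diluvial soil, covered with about 1.5 cm of soil, and the soil surface was sprayed with a water-diluted emulsion of the compound at a predetermined rate. Plants grew in a greenhouse at 25° C. to 30° C.; effects were scored visually 3 weeks after application.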

Another series deals with Avena fatua. The series is described as follows: Test Example 4: herbicidal effect by soil treatment (symbol I). The conditions noted are these: for I: Avena fatua, herbicidal effect grade: 320 g/ha. The essentials: as §3
The test system of series [5] is Alopecurus myosuroides. The series is described as follows: Test Example 4: herbicidal effect by soil treatment (symbol J). The conditions noted are these: for J: Alopecurus myosuroides, herbicidal effect grade: 320 g/ha. The essentials: as §3
Series [6] has as its system Apera spica-venti. Description: Test Example 4: herbicidal effect by soil treatment (symbol L). The conditions noted are these: for L: Apera spica-venti, herbicidal effect grade: 320 g/ha. The method, boiled down: as §3
A further series deals with Abutilon theophrasti. Description: Test Example 4: herbicidal effect by soil treatment (symbol M). The conditions noted are these: for M: Abutilon theophrasti, herbicidal effect grade: 320 g/ha. The essentials: as §3
In the next series the test system is Chenopodium album. The series is described as follows: Test Example 4: herbicidal effect by soil treatment (symbol O). The conditions noted are these: for O: Chenopodium album, herbicidal effect grade: 320 g/ha. The method, boiled down: as §3
The subject of another series is Veronica persica. Description: Test Example 4: herbicidal effect by soil treatment (symbol R). To be noted: for R: Veronica persica, herbicidal effect grade: 320 g/ha. The essentials:
as §3

The test system of series [7] is Alopecurus myosuroides. The series is described as follows: Test Example 5: herbicidal effect by foliage application, plastic box (symbol J). The conditions noted are these: 320 g/ha, 3 weeks after application. The essentials:
(§4)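 Greenhouse foliar test: seedlings at 14 days, grown 25° C. to 30° C. in sterilized diluvial soil; compound applied as an aqueous dilution of an emulsion; response read 3 weeks after spraying.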

Series [8] concerns Apera spica-venti. Description: Test Example 5: herbicidal effect by foliage application, plastic box (symbol L). To be noted: 320 g/ha, 3 weeks after application. The method, boiled down:
as §4

A further series relates to corn. Description: Test Example 5: effect on crop by foliage application, plastic box (symbol c). To be noted: 320 g/ha, 3 weeks after application. The essentials:
(§5)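 Diluvial soil, sterilized and boxed (21 × 13 × 7 cm), received spot-sown seed covered by about 1.5 cm soil; plants were then greenhouse-grown at 25–30° C.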

For a further series, the system named is rapeseed. Description: Test Example 5: effect on crop by foliage application, plastic box (symbol g). To be noted: 320 g/ha, 3 weeks after application. The essentials:
as §5

Another series deals with Cyperus difformis. Description: Test Example 3: herbicidal effect by foliage application, Wagner pot (symbol E). To be noted: application herbicide amount 320 g/ha. The essentials:
as §2

[9] abbreviates: application herbicide amount 320 g/ha.

For the compound `CCC(Oc1ccc2ncc(Br)cc2c1)C(=O)OC1=C(c2c(C)cc(C)cc2C)C(=O)C(CC(C)=NOC)C1` (stereo not drawn) [1-140], the “Herbicidal effect grade, B: Scirpus juncoides” value (from here on “Herbicidal effect grade, B”) with Scirpus juncoides [1] and with Scirpus juncoides [3] was 5 (Herbicidal ratio of 90% or more (almost completely withered)) throughout. For the same compound, the “Herbicidal effect grade, A: Echinochloa oryzacola Vasing.” value in series [2] is given as 5 (Herbicidal ratio of 90% or more (almost completely withered)). The “herbicidal effect on H (Echinochloa crus-galli var. crus-galli), grade 0-5” value in series [4] is 5 (Herbicidal ratio of 90% or more (almost completely withered)). The “G: Setaria viridis, herbicidal effect grade” value with Setaria viridis is 5 (Herbicidal ratio of 90% or more (almost completely withered)). Also, the “I: Avena fatua, herbicidal effect grade” value in the series on Avena fatua is 4 (Herbicidal ratio of 70% or higher and lower than 90%). For the same compound, the “J: Alopecurus myosuroides, herbicidal effect grade” value in the series on Alopecurus myosuroides [5] is listed as 5 (Herbicidal ratio of 90% or more (almost completely withered)). Further, the “L: Apera spica-venti, herbicidal effect grade” value with Apera spica-venti [6] is 5 (Herbicidal ratio of 90% or more (almost completely withered)). Moreover, the “M: Abutilon theophrasti, herbicidal effect grade” value with Abutilon theophrasti is given as 5 (Herbicidal ratio of 90% or more (almost completely withered)). In addition, the “O: Chenopodium album, herbicidal effect grade” value in the series on Chenopodium album is on record as 0 (Herbicidal ratio of 5% or lower (almost no effect)). Moreover, the “R: Veronica persica, herbicidal effect grade” value with Veronica persica was 0 (Herbicidal ratio of 5% or lower (almost no effect)). Besides, in the series on Alopecurus myosuroides [7], the “J: Alopecurus myosuroides, herbicidal effect (criteria 0-5)” value was 5 (Herbicidal ratio of 90% or more (almost completely withered)). In the series with Apera spica-venti [8], the “L: Apera spica-venti, herbicidal effect (criteria 0-5)” value (“L: Apera spica-venti … (criteria 0-5)” for short) was 5 (Herbicidal ratio of 90% or more (almost completely withered)). The “c: corn, effect on crop (criteria 0-5)” value in the series with corn is 4 (Herbicidal ratio of 70% or higher and lower than 90%). Also, the “g: rapeseed, effect on crop (criteria 0-5)” value (“g: rapeseed … (criteria 0-5)” below) in the series with rapeseed was 5 (Herbicidal ratio of 90% or more (almost completely withered)).
As to `CON=C(C)CC1CC(OC(=O)C#C[Si](C)(C)C)=C(c2c(C)cc(C)cc2C)C1=O` (stereo not drawn) [1-096], the “Herbicidal effect grade, B” value in the series with Scirpus juncoides [1] and in the series with Scirpus juncoides [3] was 5 (Herbicidal ratio of 90% or more (almost completely withered)) throughout. In series [2], the “Herbicidal effect grade, A: Echinochloa oryzacola Vasing.” value is reported as 5 (Herbicidal ratio of 90% or more (almost completely withered)). In addition, the “herbicidal effect on H (Echinochloa crus-galli var. crus-galli), grade 0-5” value in series [4] is recorded as 5 (Herbicidal ratio of 90% or more (almost completely withered)). The “herbicidal effect on E, grade 0-5” value in the series with Cyperus difformis is 5 (Herbicidal ratio of 90% or more (almost completely withered)). Besides, the “G: Setaria viridis, herbicidal effect grade” value in the series with Setaria viridis is 5 (Herbicidal ratio of 90% or more (almost completely withered)). The “I: Avena fatua, herbicidal effect grade” value with Avena fatua is 3 (Herbicidal ratio of 40% or higher and lower than 70%). For the same compound, in the series with Alopecurus myosuroides [5], the “J: Alopecurus myosuroides, herbicidal effect grade” value was 5 (Herbicidal ratio of 90% or more (almost completely withered)). The “L: Apera spica-venti, herbicidal effect grade” value in the series with Apera spica-venti [6] is listed as 5 (Herbicidal ratio of 90% or more (almost completely withered)). The “M: Abutilon theophrasti, herbicidal effect grade” value with Abutilon theophrasti was 4 (Herbicidal ratio of 70% or higher and lower than 90%). Also, in the series with Chenopodium album, the “O: Chenopodium album, herbicidal effect grade” value is given as 0 (Herbicidal ratio of 5% or lower (almost no effect)). Besides, in the series on Veronica persica, the “R: Veronica persica, herbicidal effect grade” value is reported as 0 (Herbicidal ratio of 5% or lower (almost no effect)). Moreover, the “J: Alopecurus myosuroides, herbicidal effect (criteria 0-5)” value in the series with Alopecurus myosuroides [7] is on record as 5 (Herbicidal ratio of 90% or more (almost completely withered)). In addition, the “L: Apera spica-venti … (criteria 0-5)” value in the series on Apera spica-venti [8] is listed as 5 (Herbicidal ratio of 90% or more (almost completely withered)). Further, in the series on corn, the “c: corn, effect on crop (criteria 0-5)” value is 5 (Herbicidal ratio of 90% or more (almost completely withered)). The “g: rapeseed … (criteria 0-5)” value in the series with rapeseed was 4 (Herbicidal ratio of 70% or higher and lower than 90%).
For the compound `CON=C(CC1CC(O)=C(c2c(C)cc(-c3ccccc3)cc2C)C1=O)C1CC1` (mixture of isomers) [9-028], the “B (Scirpus juncoides) herbicidal effect grade” value in the series on Scirpus juncoides [1] is 5 (Herbicidal ratio of 90% or more (almost completely withered)). The “Herbicidal effect grade, A: Echinochloa oryzacola Vasing.” value in series [2] was 5 (Herbicidal ratio of 90% or more (almost completely withered)). Besides, the “Herbicidal effect grade, B” value in the series on Scirpus juncoides [3] was 4 (Herbicidal ratio of 70% or higher and lower than 90%). Further, the “H (Echinochloa crus-galli var. crus-galli) herbicidal effect grade” value in series [4] (Table 24) is on record as 5 (Herbicidal ratio of 90% or more (almost completely withered)). Further, in the series on Setaria viridis (setting [9]), the “Herbicidal effect grade, G: Setaria viridis” value was 5 (Herbicidal ratio of 90% or more (almost completely withered)). The “Herbicidal effect grade, I: Avena fatua” value with Avena fatua (setting [9]) is 3 (Herbicidal ratio of 40% or higher and lower than 70%). Besides, the “Herbicidal effect grade, J: Alopecurus myosuroides” value in the series with Alopecurus myosuroides [5] (setting [9]) is recorded as 5 (Herbicidal ratio of 90% or more (almost completely withered)). Further, the “Herbicidal effect grade, L: Apera spica-venti” value in the series on Apera spica-venti [6] (setting [9]) was 5 (Herbicidal ratio of 90% or more (almost completely withered)). Moreover, the “Herbicidal effect grade, M: Abutilon theophrasti” value in the series on Abutilon theophrasti (setting [9]) is on record as 0 (Herbicidal ratio of 5% or lower (almost no effect)). The “Herbicidal effect grade, O: Chenopodium album” value in the series on Chenopodium album (setting [9]) is 0 (Herbicidal ratio of 5% or lower (almost no effect)). The “Herbicidal effect grade, R: Veronica persica” value in the series on Veronica persica (setting [9]) is reported as 0 (Herbicidal ratio of 5% or lower (almost no effect)). Besides, the “J: Alopecurus myosuroides, herbicidal effect grade” value with Alopecurus myosuroides [7] is 5 (Herbicidal ratio of 90% or more (almost completely withered)). Also, the “L: Apera spica-venti, herbicidal effect grade” value in the series with Apera spica-venti [8] is listed as 5 (Herbicidal ratio of 90% or more (almost completely withered)). In addition, in the series with corn, the “c: corn, effect on crop grade” value is 5 (Herbicidal ratio of 90% or more (almost completely withered)). The “g: rapeseed, effect on crop grade” value in the series with rapeseed was 4 (Herbicidal ratio of 70% or higher and lower than 90%).
As to `CON=C(CC1CC(O)=C(c2c(C)cc(C)cc2C)C1=O)C(F)(F)F` (stereo not drawn) [1-097], the “Herbicidal effect grade, B” value in the series with Scirpus juncoides [1] and in the series with Scirpus juncoides [3] was 0 (Herbicidal ratio of 5% or lower (almost no effect)) throughout. Also, in series [2], the “Herbicidal effect grade, A: Echinochloa oryzacola Vasing.” value was 1 (Herbicidal ratio of 5% or higher and lower than 20%). The “G: Setaria viridis, herbicidal effect grade” value with Setaria viridis is 2 (Herbicidal ratio of 20% or higher and lower than 40%). The “I: Avena fatua, herbicidal effect grade” value in the series with Avena fatua was 1 (Herbicidal ratio of 5% or higher and lower than 20%). Besides, the “J: Alopecurus myosuroides, herbicidal effect grade” value in the series on Alopecurus myosuroides [5] was 2 (Herbicidal ratio of 20% or higher and lower than 40%). For the same compound, the “L: Apera spica-venti, herbicidal effect grade” value in the series with Apera spica-venti [6] is 0 (Herbicidal ratio of 5% or lower (almost no effect)). Moreover, the “M: Abutilon theophrasti, herbicidal effect grade” value in the series with Abutilon theophrasti is 0 (Herbicidal ratio of 5% or lower (almost no effect)). Besides, the “O: Chenopodium album, herbicidal effect grade” value in the series with Chenopodium album is 3 (Herbicidal ratio of 40% or higher and lower than 70%). The “R: Veronica persica, herbicidal effect grade” value in the series with Veronica persica is listed as 0 (Herbicidal ratio of 5% or lower (almost no effect)). Besides, the “J: Alopecurus myosuroides, herbicidal effect (criteria 0-5)” value in the series on Alopecurus myosuroides [7] was 5 (Herbicidal ratio of 90% or more (almost completely withered)). Besides, the “L: Apera spica-venti … (criteria 0-5)” value in the series with Apera spica-venti [8] was 4 (Herbicidal ratio of 70% or higher and lower than 90%). Also, the “c: corn, effect on crop (criteria 0-5)” value in the series on corn is recorded as 5 (Herbicidal ratio of 90% or more (almost completely withered)). In addition, in the series with rapeseed, the “g: rapeseed … (criteria 0-5)” value was 3 (Herbicidal ratio of 40% or higher and lower than 70%).
